This is an account of results in ChEMBL document CHEMBL1201862, “PubChem BioAssay data set” (2004).

Each structure is given as a SMILES string. Calls of active or inactive are those of the source.

In assay [1] the target is Serine/threonine-protein phosphatase (Candida dubliniensis (strain CD36 / CBS 7987 / NCPF 3949 / NRRLY-17841) (Yeast), UniProt B9W6M3). Put plainly: calcineurin pathway inhibitors in yeast reporter, dose response, S. cerevisiae, CDRE-lacZ, luminescence, secondary (AID 2388).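 Further: yeast reporter cells carrying a calcineurin-responsive lacZ construct stimulated with calcium chloride; luminescent beta-galactosidase reporter signal in whole cells rather than isolated phosphatase activity; potency for inhibition where a drop in reporter signal means calcineurin blockade.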 Type of assay: functional, cell-based.
Serine/threonine-protein phosphatase, sequence (B9W6M3 whole entry): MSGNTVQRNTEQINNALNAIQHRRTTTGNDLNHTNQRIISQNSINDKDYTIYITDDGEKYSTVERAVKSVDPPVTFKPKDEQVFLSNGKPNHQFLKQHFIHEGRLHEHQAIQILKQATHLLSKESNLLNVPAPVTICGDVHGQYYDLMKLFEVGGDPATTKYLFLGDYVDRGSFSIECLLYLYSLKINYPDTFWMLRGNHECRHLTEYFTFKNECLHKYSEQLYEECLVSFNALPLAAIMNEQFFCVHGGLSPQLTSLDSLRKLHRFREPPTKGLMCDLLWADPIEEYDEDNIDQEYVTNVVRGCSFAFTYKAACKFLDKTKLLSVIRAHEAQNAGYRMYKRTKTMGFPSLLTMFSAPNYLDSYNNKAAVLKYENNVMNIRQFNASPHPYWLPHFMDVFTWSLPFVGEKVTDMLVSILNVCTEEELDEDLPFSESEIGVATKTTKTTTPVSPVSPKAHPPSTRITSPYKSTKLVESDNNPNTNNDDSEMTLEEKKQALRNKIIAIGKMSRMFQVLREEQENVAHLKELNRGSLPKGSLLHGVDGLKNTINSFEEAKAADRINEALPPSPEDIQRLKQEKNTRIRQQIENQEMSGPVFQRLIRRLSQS
Assay [2] in a line: C. albicans growth with fluconazole, confirmation, fluorescence, retest (AID 2467). It counts as functional, cell-based.
Assay [3] can be described thus: cytotoxicity toward NIH3T3 fibroblasts, dose response, counter-screen, cell-based, ATP luminescence, mouse fibroblasts (AID 2010).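 Further: cells exposed to compound for about 90 hours before reading.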 Type of assay: functional.
For assay [4], the target named is T1, Replicative DNA helicase DnaB (Mycobacterium tuberculosis, UniProt P9WMR3).
T1 sequence (P9WMR3 whole entry): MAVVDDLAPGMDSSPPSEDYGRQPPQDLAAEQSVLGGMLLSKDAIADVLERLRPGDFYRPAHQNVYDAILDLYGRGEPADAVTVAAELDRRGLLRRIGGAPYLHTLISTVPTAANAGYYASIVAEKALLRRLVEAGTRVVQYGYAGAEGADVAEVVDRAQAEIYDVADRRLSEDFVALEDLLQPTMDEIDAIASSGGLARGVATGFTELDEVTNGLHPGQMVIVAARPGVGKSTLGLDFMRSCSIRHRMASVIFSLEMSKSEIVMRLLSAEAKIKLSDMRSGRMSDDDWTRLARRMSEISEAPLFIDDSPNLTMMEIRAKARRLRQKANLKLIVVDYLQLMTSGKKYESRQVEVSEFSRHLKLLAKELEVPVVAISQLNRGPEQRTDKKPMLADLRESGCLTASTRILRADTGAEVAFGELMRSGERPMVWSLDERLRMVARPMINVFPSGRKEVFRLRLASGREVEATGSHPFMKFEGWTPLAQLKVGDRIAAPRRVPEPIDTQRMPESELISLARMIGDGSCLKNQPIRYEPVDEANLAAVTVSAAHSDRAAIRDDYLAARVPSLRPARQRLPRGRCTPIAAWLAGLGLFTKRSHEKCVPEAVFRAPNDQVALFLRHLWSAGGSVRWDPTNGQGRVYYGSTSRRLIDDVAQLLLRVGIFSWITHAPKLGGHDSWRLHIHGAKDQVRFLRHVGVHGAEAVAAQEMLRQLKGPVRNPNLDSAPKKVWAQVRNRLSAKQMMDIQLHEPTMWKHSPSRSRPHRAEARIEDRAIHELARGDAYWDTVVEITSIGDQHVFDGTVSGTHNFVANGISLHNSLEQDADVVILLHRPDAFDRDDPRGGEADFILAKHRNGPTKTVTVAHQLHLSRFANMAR
Put plainly: DnaB intein splicing inhibitors, dose response, biochemical, cell-free fluorescence (AID 449749). It counts as functional.

Assay [5] addresses T2, Apoptotic protease-activating factor 1 (Homo sapiens, UniProt O14727).
T2 sequence (O14727 whole entry): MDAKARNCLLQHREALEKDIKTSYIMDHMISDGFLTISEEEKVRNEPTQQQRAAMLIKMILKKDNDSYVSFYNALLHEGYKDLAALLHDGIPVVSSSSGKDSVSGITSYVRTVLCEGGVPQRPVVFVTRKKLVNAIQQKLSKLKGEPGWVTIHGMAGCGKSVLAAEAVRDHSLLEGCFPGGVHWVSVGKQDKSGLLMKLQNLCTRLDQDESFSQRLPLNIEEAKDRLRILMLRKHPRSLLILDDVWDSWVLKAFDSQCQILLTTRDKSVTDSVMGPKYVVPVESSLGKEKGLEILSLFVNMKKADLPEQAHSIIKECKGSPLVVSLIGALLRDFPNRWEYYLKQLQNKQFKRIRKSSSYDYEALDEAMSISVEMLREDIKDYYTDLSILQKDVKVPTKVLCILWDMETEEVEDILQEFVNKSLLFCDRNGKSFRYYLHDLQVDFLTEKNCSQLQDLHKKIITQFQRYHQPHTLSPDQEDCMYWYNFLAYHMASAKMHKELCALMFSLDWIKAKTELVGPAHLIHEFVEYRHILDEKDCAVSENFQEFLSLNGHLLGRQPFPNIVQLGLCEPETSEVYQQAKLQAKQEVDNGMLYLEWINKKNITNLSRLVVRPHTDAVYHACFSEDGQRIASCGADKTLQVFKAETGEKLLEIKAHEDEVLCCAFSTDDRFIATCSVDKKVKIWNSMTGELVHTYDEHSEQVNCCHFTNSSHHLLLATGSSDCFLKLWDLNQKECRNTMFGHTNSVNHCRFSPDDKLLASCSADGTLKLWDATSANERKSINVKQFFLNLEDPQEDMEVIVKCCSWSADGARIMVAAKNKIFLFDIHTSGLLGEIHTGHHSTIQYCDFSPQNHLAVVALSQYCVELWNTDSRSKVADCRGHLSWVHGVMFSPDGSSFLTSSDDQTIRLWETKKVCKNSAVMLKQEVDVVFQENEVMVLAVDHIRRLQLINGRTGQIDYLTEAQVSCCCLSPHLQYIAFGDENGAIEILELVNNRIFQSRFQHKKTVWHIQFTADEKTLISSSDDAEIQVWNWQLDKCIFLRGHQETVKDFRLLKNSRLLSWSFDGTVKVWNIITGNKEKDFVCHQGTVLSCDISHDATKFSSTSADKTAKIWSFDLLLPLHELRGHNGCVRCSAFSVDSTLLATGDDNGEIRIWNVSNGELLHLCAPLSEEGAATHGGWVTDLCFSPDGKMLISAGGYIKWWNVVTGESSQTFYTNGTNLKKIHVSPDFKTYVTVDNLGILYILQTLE
It counts as functional.

Assay [6] is described as follows: NIH-3T3 fibroblast cytotoxicity, dose response, cytotoxicity control, cell-based, fluorescence, Alamar Blue, secondary assay (AID 2327).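 Further: NIH-3T3 mouse fibroblasts cultured with fluconazole at 8 µg/mL.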 Type of assay: functional. (Alamar Blue is a resazurin reagent that responds to reducing activity.)
A further assay concerns the target T3, Protein RecA (Mycobacterium tuberculosis, UniProt P9WHJ3).
T3 sequence (P9WHJ3 whole entry): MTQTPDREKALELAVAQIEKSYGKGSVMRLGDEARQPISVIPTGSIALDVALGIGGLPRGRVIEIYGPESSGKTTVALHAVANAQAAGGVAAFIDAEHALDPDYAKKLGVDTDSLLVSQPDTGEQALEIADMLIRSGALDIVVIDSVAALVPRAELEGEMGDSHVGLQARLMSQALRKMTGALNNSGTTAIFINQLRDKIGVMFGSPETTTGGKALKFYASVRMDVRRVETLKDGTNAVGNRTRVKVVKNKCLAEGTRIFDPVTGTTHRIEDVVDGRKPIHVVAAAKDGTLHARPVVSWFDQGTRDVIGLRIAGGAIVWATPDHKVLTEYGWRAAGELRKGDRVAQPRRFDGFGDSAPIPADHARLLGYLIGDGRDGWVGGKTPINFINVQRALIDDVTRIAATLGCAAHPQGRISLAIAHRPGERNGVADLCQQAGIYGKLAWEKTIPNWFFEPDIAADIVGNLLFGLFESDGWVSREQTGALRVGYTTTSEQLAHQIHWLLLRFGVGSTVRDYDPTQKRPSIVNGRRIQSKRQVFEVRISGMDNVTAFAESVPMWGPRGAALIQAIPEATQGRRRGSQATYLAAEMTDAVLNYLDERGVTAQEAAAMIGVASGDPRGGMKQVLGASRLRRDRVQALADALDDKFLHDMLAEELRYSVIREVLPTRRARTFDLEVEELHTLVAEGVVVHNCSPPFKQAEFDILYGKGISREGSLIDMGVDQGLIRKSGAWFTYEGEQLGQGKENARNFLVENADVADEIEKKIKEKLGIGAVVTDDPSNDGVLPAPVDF
Description: Fluorescence Cell-Free Homogeneous Dose Retest to Identify Inhibitors of RecA-Intein Splicing Activity. [Related pubchem assays (depositor defined):AID2097, AID2223, AID489010, AID492950]. Type of assay: functional.

Assay [7] concerns the target ATP-dependent molecular chaperone HSP82 (Candida albicans (strain WO-1) (Yeast), UniProt C4YTQ8). Description: loss of DOC-induced GRE-beta-galactosidase reporter signal, dose response, Hsp90 inhibitor project, S. cerevisiae, luminescence (AID 2400).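 Further: beta-galactosidase luminescence from glucocorticoid response element reporter as proxy for Hsp90 function; inhibitor potency where signal loss means Hsp90 inhibition.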 It counts as functional, cell-based.
Assay [8] in a line: inhibitors of intracellular T. cruzi replication, confirmation, NIH3T3 host cells, beta-gal luminescence (AID 2044).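 Further: intracellular parasites grown in NIH/3T3 mouse fibroblasts as host cells; luminescent beta-galactosidase reporter signal from transgenic T. cruzi replicating inside host cells; inhibitors lower the luminescence signal.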 Type of assay: functional, cell-based.
Assay [9] relates to INS1. Description: beta cell apoptosis inhibitors, cytokine rescue, dose response, luminescence, retest (AID 449756).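 Further: cell death triggered by IL-1 beta plus TNF-alpha plus IFN-gamma mixture; protective hits raise ATP signal compared with cytokine alone wells.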 It counts as functional, cell-based. Particulars: Rattus norvegicus, INS1.
Assay [10] concerns the target Short transient receptor potential channel 6 (Mus musculus, UniProt Q61143). Description: TRPC6 inhibition potency of TRPC4 inhibitor analogs, dose response, selectivity assay for selective TRPC4 inhibitor project, HEK293 cells, membrane potential dye, IC50 (AID 492987). Type of assay: functional, cell-based.
Assay [11] in a line: inhibitors of SNCA 5'UTR-driven reporter translation, confirmation, H4 neuroglioma cells, luminescence (AID 1988). It counts as functional, cell-based.
The nature of assay [12]: Luminescence Cell-Based Dose Response HTS to Identify Inhibitors of 5'UTR Stem-Loop Driven Prion Protein mRNA Translation in H4 Neuroglioblastoma Cells. [Related pubchem assays: 1827 (Project Summary), 1813 (Primary HTS)]. Type of assay: functional.
Assay [13] can be described thus: inhibitors of firefly luciferase expression or activity, dose response, H4 neuroglioma cells, luminescence (AID 1990). It counts as functional, cell-based.
For another assay, the system named is HEK293. Description: inhibitors of LMP1-driven NF-kB reporter, dose response, cell-based, HEK293, luciferase, cherry-pick (AID 588343). Type of assay: functional. Particulars: Homo sapiens.
Assay [14] in a line: Artemis endonuclease inhibitor potency, dose response, biochemical, fluorescence intensity (AID 720701).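 Further: Artemis endonuclease enzyme.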 Type of assay: functional.
The test system of assay [15] is Candida albicans. Description: fluconazole resistance reversal in C. albicans, dose response, CaCi-2 strain, Alamar Blue, dry powder, set 4 (AID 488943). Type of assay: functional, organism-based.
Assay [16] deals with Candida albicans. Put plainly: growth inhibition of azole-resistant C. albicans, dose response, CaCi-8 strain, Alamar Blue, dry powder, set 2 (AID 488909). Type of assay: functional, organism-based.
For assay [17], the system named is Candida albicans. Put plainly: C. albicans growth inhibition with fluconazole, dose response, antifungal resistance reversal project, CaCi-2 strain, Alamar Blue, dry powder, set 2 (AID 488930). Type of assay: functional, organism-based.
Assay [18] has as its system Candida albicans. Put plainly: growth inhibition of resistant C. albicans, dose response, CaCi-8 strain, fluconazole, dry powder, set 4 (AID 488950). Type of assay: functional, organism-based.
Assay [19] has as its system INS1. Description: caspase-3/7 inhibition in cytokine-treated INS-1E, dose response, beta-cell apoptosis inhibitor project, cell-based, caspase luminescence, dry powder (AID 488848). Type of assay: functional. To be noted: Rattus norvegicus.

Short transient receptor potential channel 6, sequence (Q61143 whole entry): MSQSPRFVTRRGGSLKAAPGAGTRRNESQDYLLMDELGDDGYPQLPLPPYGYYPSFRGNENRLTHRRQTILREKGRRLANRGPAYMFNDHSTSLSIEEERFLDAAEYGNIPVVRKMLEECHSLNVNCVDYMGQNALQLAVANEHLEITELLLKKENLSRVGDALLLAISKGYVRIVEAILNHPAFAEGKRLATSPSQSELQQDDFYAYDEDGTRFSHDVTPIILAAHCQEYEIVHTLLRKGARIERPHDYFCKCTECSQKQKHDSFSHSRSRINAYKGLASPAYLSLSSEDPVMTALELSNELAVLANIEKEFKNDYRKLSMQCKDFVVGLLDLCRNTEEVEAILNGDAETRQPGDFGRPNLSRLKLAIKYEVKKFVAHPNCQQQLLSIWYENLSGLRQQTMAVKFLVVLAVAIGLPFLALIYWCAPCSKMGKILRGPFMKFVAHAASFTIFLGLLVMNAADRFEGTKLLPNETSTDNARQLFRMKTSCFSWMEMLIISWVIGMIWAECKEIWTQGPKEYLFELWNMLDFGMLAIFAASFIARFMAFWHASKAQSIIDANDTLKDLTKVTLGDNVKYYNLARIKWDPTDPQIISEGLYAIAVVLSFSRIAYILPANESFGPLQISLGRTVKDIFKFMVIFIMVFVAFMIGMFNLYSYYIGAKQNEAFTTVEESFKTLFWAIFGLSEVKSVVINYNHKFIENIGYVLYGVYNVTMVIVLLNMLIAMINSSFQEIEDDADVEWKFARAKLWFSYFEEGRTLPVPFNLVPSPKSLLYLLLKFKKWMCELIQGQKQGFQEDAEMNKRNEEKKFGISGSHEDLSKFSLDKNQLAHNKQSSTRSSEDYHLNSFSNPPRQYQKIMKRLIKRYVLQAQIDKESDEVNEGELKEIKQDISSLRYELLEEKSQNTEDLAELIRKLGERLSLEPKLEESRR
ATP-dependent molecular chaperone HSP82, sequence (C4YTQ8 whole entry): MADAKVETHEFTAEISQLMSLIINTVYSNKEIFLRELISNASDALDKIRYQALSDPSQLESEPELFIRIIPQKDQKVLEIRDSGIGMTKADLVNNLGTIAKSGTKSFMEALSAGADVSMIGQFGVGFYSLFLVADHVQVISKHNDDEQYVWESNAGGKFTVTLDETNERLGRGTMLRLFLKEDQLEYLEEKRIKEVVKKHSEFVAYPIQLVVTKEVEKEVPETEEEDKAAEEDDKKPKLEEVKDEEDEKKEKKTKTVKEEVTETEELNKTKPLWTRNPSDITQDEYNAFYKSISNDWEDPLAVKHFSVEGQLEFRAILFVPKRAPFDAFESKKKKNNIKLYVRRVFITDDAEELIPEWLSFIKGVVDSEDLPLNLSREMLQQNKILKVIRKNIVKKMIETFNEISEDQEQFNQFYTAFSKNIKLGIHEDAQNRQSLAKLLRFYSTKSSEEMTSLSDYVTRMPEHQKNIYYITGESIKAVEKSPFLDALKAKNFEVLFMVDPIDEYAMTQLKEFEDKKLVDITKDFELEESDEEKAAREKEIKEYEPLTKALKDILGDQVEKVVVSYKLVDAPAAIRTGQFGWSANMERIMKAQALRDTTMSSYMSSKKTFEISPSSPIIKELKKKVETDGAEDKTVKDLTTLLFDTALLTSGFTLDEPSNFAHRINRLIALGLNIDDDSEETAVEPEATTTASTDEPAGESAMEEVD

Broadly, the EC50 is the concentration needed to bring the measured effect to its halfway point. A word on the AC50: it is the concentration giving half of the maximal activity seen. What is called IC50 is the midpoint of a concentration-inhibition curve. With `COc1ccccc1NC1=C(N2CCCCC2)C(=O)c2ccccc2C1=O`, the EC50 was > 180 µM (inactive) in assay [1]; 1.02 µM (active) in assay [2]; > 30 µM (not active) in assay [3]; 41.7 µM (active) in [6]; 1.51 µM (active) on Protein RecA; > 160 µM (inactive) in assay [7]. Further, the EC50 in assay [8] was 0.56 µM (active). Further, the AC50 is 18.6 µM (active) in assay [4] and 0.916 µM (active) in the assay with INS1 [9]. Moreover, in [5], the IC50 is 3.32 µM (active).
Take `FC(F)(F)c1cc(N2CCCC2)nc2ccccc12`: the IC50 in assay [10] is 23.1 µM (active).
Consider `Clc1ccc(-c2cn3nc4c(nc3n2)CCCC4)cc1`, for which the EC50 in assay [11] is 1.51 µM (active); in [12], 5.88 µM (active); in assay [13], 3.45 µM (active). Also, the IC50 is 17.5 µM (active) in assay [5] and > 20 µM (inactive) in assay [14]. Moreover, in the assay on HEK293, the AC50 was 1.45 µM (active).
As for `O=C(c1cccc(Cl)c1)N1CCN(c2ccnc3cc(Cl)ccc23)CC1`, the AC50 was 2.75 µM (active) in the assay with Candida albicans [15], 8.31 µM (active) in the assay with Candida albicans [16], 2.33 µM (active) with Candida albicans [17] and 2.43 µM (active) in the assay with Candida albicans [18].
Take `COc1ccc(S(=O)(=O)N(C)C[C@@H]2Oc3c(NC(=O)Nc4cccc5c4ccn5C)cccc3C(=O)N([C@@H](C)CO)C[C@H]2C)cc1`: the AC50 in the assay with INS1 [19] is 17.5 µM (active).
